Where two headings read alike, the source gives them in different places.
Assays:
[1] = Apparent permeability assay in biorelevant media (PAMPA); assay type: in vitro ADME; details: for PAMPA: optimized ticagrelor model input; for Papp: PAMPA, parallel artificial membrane
Experimental: In light of observed distinctions in the apparent permeability of drugs in biorelevant media compared to standard media, the apparent permeability of ticagrelor in FaSSIF and FeSSIF media was measured using the published method with the parallel artificial membrane. The apparent permeability of rivaroxaban and PB-201 (Drug-A) in biorelevant media was referenced from the published results.

CYP3A4 = CYP3A4 intrinsic clearance fitted in PBPK model; details: Fitted to clinical PK profiles
Text: (§1) S2. PBPK model development and validation physicochemical parameters for these three model drugs, including protein binding and Blood-to-Plasma (B/P) ratio, were obtained from experimental results, while log P and pKa were estimated based on the molecular formula using Gastro Plus ADMET software (version 10.3, […]
(§2) S2.1. Rivaroxaban PBPK model development and validation
S2.1.1. Rivaroxaban PBPK model development for metabolism and elimination module Given that the metabolic fractions of CYP3A4 and CYP2J2 to the systemic clearance of rivaroxaban were approximately 18% and 14% [1], respectively, and liver hydrolases contributed to about 14% of its systemic clearance, CLint_CYP3A4, CLint_CYP2J2 and CLHLM were fitted according to the metabolic fraction of rivaroxaban in vivo and concentration-time profiles from the SAD clinical trial in Caucasian subjects under fasted state. Considering that rivaroxaban was a substrate of P-gp transporter, and that about 36% and 7% of the parent drug were directly excreted by the kidney and liver, respectively, rivaroxaban may undergo active efflux through the kidney and liver in vivo [2]. Consequently, permeability-limited kidney and liver models were employed to account for the active efflux mechanism of P-gp for rivaroxaban. These models include both passive diffusion and active transport.
Clearances for passive diffusion in the kidney and liver was calculated using Equation S1 [5] and Equation S2 [6], respectively.
CL௉஽,௜ =2×P௔௣௣ × TSA௜ ሺS1ሻ where CLPD,i is the passive diffusion clearance of the drug in compartment i, Papp is the apparent permeability of the drug, and the TSAi is the regional tubular surface area of compartment i.
Log CL௉஽ =0.82×logD଻.ସ +0.5 ሺS2ሻ where CLPD is the passive diffusional clearance of APIs in the liver, and log D 7.4 is the oil-water partition coefficient at pH 7.4 [6] […]
Blood-to-plasma partition ratio 0.714 Measured
Fraction unbound in plasma 0.065 Measured […]
Caco-2(10-6cm/s) (Rivaroxaban) 8.103 Measured […]

[2] = ticagrelor; supplement ref 17; cited from earlier work
CYP2J2 = CYP2J2 intrinsic clearance fitted in PBPK model; details: Fitted to in vivo metabolic fraction and SAD C-T profiles
Text: as §1, §2
(§3) S2.1.1. Rivaroxaban PBPK model development for metabolism and elimination module […]
(§4) its systemic clearance, CLint_CYP3A4, CLint_CYP2J2 and CLHLM were fitted according to the metabolic fraction of rivaroxaban in vivo and concentration-time profiles from the SAD clinical trial in Caucasian subjects under fasted state. […]
(§5) permeability-limited kidney and liver models were employed to account for the active efflux […]
(§6) Physicochemical properties

[3] = in vivo, cited from earlier work
ABCB1 (P-gp/MDR1) = experiment: P-gp efflux clearance in kidney and liver fitted in PBPK model; details: human, permeability-limited liver model, Canalicular, read-out: CLint,T
Text: as §1, §2, §3, §4, §5, §6

[4] = Dissolution tests of formulations in biorelevant media (USP 2); assay type: physicochemical; details: formulation, 500 and 900 mL FaSSIF or FeSSIF media
Experimental: Dissolution tests employing biorelevant media have gained widespread utilization in formulation development, offering valuable insights into the behavior of APIs and their respective formulations within the GI tract. In this study, dissolution behavior was assessed using the calibrated USP 2 apparatus (Pion Scientific Instruments, Billerica, MA, USA) across various media, including FaSSGF, FaSSIF, and FeSSIF. The fasted gastric environment was simulated with 300 mL of FaSSGF medium, while FaSSIF and FeSSIF media were used to mimic the intestinal conditions under fasted and fed states, with volumes of 500 and 900 mL, respectively. Dissolution experiments were conducted at a paddle speed of 75 rpm, with the medium temperature maintained at 37 ± 0.5 °C. Sample concentrations were monitored at 1 min intervals via an in situ fiber-optic UV dissolution real-time monitoring system. All experiments were conducted in triplicate.

[5] = Passive diffusion clearance and unbound fractions of permeability-limited kidney and liver models; details: Liver, Fitted
Text: as §1, §2, §3, §4, §5, §6

[6] = set-up: method as in earlier work; details: optimized rivaroxaban model input, cited from earlier work

PAMPA ([1]; Fasted (FaSSIF)) | PAMPA ([1]; Fed (FeSSIF)) | Papp ([1]; FaSSIF) [×10⁻⁶ cm/s] | Papp ([1]; FeSSIF) [×10⁻⁶ cm/s] | Intrinsic clearance of CYP 3A4 (CYP3A4) [µL/min/pmol] | Intrinsic clearance of CYP 2J2 (CYP2J2) [µL/min/pmol] | hepatocyte CLint (ABCB1 (P-gp/MDR1)) [µL/min/1e6 cells] | dissolution percentages [4] | fuIW [5] | Structure (SMILES) | CLR typical renal clearance [2] [L/h] | metabolic fraction of CYP2J2 to the systemic clearance ([3]; supplement ref 1) | metabolic fraction of CYP3A4 to the systemic clearance ([3]; supplement ref 1) | parent drug directly excreted by the kidney ([3]; supplement ref 1) | parent drug directly excreted by the liver ([3]; supplement ref 1) [%] | contribution of liver hydrolases to systemic clearance ([3]; supplement ref 2) | PAMPA ([6]; Fasted (FaSSIF)) | PAMPA ([6]; Fed (FeSSIF))
90.2 10E-06 cm/s | 14.30 10E-06 cm/s | 90.2 | 14.3 | 5.00 | – | – | – | – | CCCSc1nc(N[C@@H]2C[C@H]2c2ccc(F)c(F)c2)c2nnn([C@@H]3C[C@H](OCCO)[C@@H](O)[C@H]3O)c2n1 [Ticagrelor] | 0.00584 | – | – | – | – | – | – | –
– | – | – | – | 0.027 | 2.500 | 0.03 | below 80% | 0.193 | O=C(NC[C@H]1CN(c2ccc(N3CCOCC3=O)cc2)C(=O)O1)c1ccc(Cl)s1 [Rivaroxaban] | – | about 14% | approximately 18% | about 36% | ~7 | about 14% | 52.6 10E-06 cm/s | 40.80 10E-06 cm/s

Reference: article PMC11511194, “Key Factors for Improving Predictive Accuracy and Avoiding Overparameterization of the PBPK Absorption Model in Food Effect Studies of Weakly Basic Water-Insoluble Compounds in Immediate Release Formulations” (Pharmaceutics, 2024)
